Data on 16 molecules can be found in US20110287494A1, “PROCESS FOR PRODUCTION OF OPTICALLY ACTIVE AMINE DERIVATIVE” (Daicel Chemical Industries Ltd, priority 2008, published 2011).

“Also recorded” adds a separate entry of the source.

Data set [1] relates to imine reductase purified from GF3587. Nature of the data set: Substrate specificity of imine reductase purified from GF3587 (decrease of NADPH absorbance at 340 nm). It counts as biochemical, Streptomyces sp. GF3587. Conditions: for Relative Activity: 2-MPN = 100; for level of activity of reducing the compound, activity of reducing 2-methyl-1-pyrroline taken as 100: relative to 2-MPN = 100. As to the method: To assess the substrate specificity of the imine reductase purified from GF3587, the activities of the enzyme towards the compounds listed in Table 4 were compared.
One ml of reaction mixtures having the composition described below were incubated at […]. The reaction mixtures were assayed to determine the decrease in absorbance (340 nm) of NADPH due to the generation of (R)-2-methylpyrrolidine. An imine reductase solution (2.04 U/ml) was added to reaction solutions containing each substrate compound shown in Table 4 to initiate the reaction. The absorbance of each reaction solution was determined at 340 nm after two minutes of incubation.
The relative activity shown in the table is defined as relative activity when the enzymatic activity on […] (2-MPN) is taken as 100.

Data set [2] has as its system imine reductase responsible for the reduction of 2-methyl-1-pyrroline (crude enzyme solution). Nature of the data set: Coenzyme dependency of 2-methyl-1-pyrroline reduction by crude enzyme solution. It counts as biochemical, Streptomyces sp. GF3587. Conditions: 10 mM coenzyme, 10 mM 2-methyl-1-pyrroline, pH 7.0, 30° C. The protocol:
(§1) The cells of Streptomyces sp. GF3587 were cultured according to Example 1, and then crushed with glass beads. A crude enzyme solution was prepared by removing intact microbial cells and cell debris by centrifugation. 100 μl of the crude enzyme solution was added to 100 mM phosphate buffer (pH 7.0) containing 10 mM 2-methyl-1-pyrroline and 10 mM NADH or NADPH. During incubation of the mixture at 30° C., absorbance was measured at 340 nm to monitor the decrease of NAD(P)H. The enzymatic activity was determined by this assay.

Data set [3] can be described thus: Optimal temperature of imine reductase. It counts as biochemical, Streptomyces sp. GF3587. The note with it: pH 7.0, 10 to 70° C. tested. The protocol:
The imine reductase purified from GF3587 was tested for its optimal temperature. 1 ml of reaction solution having the composition described below were incubated at 10 to 70° C. to measure the decrease of absorbance (340 nm) of NADPH due to the generation of (R)-2-methylpyrrolidine. After the reaction solutions were pre-incubated at each temperature for five minutes, an imine reductase solution (12.3 U/ml) was added thereto to initiate the reaction. After two minutes, the absorbance of the reaction solutions was measured at 340 nm. The amount of imine reductase that catalyzes the decrease (oxidation) of 1 μmol of NADPH per minute when incubated at 30° C. in the reaction solution having the composition described below is defined as 1 U. The result is shown in FIG. 7.

Data set [4] can be described thus: Optimal pH of imine reductase. It counts as biochemical, Streptomyces sp. GF3587. The note with it: 30° C. As to the method: Furthermore, the imine reductase purified from GF3587 was tested for its optimal pH. The reaction was started by adding an imine reductase (6.82 U/ml) solution to reaction mixtures having the same composition as shown in (1), except that various types of buffer agents were added. The mixtures were incubated at 30° C. for two minutes. The buffers used in this experiment and their pH are listed below.
100 mM citrate buffer: pH 3 to 6
100 mM sodium acetate buffer: pH 4 to 5.5
100 mM potassium phosphate buffer: pH 6 to 8
100 mM Tris-HCl buffer: pH 7.5 to 9
100 mM glycine-sodium hydroxide buffer: pH 9 to 11
The reaction solutions were assayed to determine the decreases in absorbance (340 nm) of NADPH due to the generation of (R)-2-methylpyrrolidine. […] Furthermore, 80% or more of the maximal activity was retained at pH 6.0 to 7.5.

Data set [5] is described as follows: Imine-reducing activity of microbial cell extracts of recombinant E. coli JM109. Type of data set: biochemical. The note with it: protein expressed in E. coli. As to the method:
as §1
The E. coli JM109 strain that had been transformed with an imine reductase expression plasmid pSUSRIR1 was cultured in an ampicillin-containing liquid LB medium at 30° C. overnight. After adding 0.1 mM IPTG, the cells were further cultured for four hours.
The microbial cells were harvested by centrifugation, and then suspended in 100 mM potassium phosphate buffer (pH 7.0) containing 1 mM DTT. The microbial cells were crushed in Sealed-Type Ultrasonic Cell Disruptor UCD-200™ (Cosmo Bio). After centrifugation, the supernatant was collected as microbial cell extract. […] After adding 0.1 mM IPTG the cells were further cultured for four hours. Using the same method, the microbial cells were also crushed to prepare microbial cell extract.
Each microbial cell extract was assayed for its imine-reducing activity towards 2-methyl-1-pyrroline. […]

As for `C1=NCCCN1` [1,4,5,6-Tetrahydropyrimidine], the “Relative Activity” value in data set [1] (substrate 10 mM) is listed as 0.
As for `CC1=NCCC1` [2-Methyl-1-pyrroline (2-MPN), 2-Methyl-1-pyrroline], the “level of activity of reducing the compound, activity of reducing 2-methyl-1-pyrroline taken as 100” value in data set [1] is 100%. In data set [1] (substrate 10 mM), the “enzymatic activity corresponding to relative activity 100” value amounted to 2.04 U/mL and the “Relative Activity” value is 100.
On to `Cc1ccco1` [2-Methylfuran], for which the “Relative Activity” value in data set [1] (substrate 10 mM) came out at 0.
For `Cc1ncc[nH]1` [2-Methylimidazole], the “Relative Activity” value in data set [1] (substrate 10 mM) turned out to be 0.
`Cc1cnccn1` [2-Methylpyrazine]: the “Relative Activity” value in data set [1] (substrate 10 mM) is listed as 0.
Still for that read-out and setting: the same measure for `Cc1ncccn1` [2-Methylpyrimidine]: 0; for `Cc1nccs1` [2-Methylthiazole]: 0.
On to `Cc1cccs1` [2-Methylthiophene], for which, in data set [1] (substrate 5 mM), the “Relative Activity” value was found to be 0.
For the molecule `CC(=NO)c1ccccc1` [Acetophenone oxime], in data set [1] (substrate 1 mM), the “Relative Activity” value is given as 0.
With `Nc1nc2c(c(=O)[nH]1)N=C(CNc1ccc(C(=O)N[C@@H](CCC(=O)O)C(=O)O)cc1)CN2` [Dihydrofolic acid], in data set [1], the “level of activity of reducing the compound, activity of reducing 2-methyl-1-pyrroline taken as 100” value stood at 7.6%. The “Relative Activity” value in data set [1] (substrate 0.05 mM) was 7.6.
For the molecule `C/C(=N\c1ccccc1)c1ccccc1` [N-((E/Z)-N-(1-phenylethylidene)aniline], the “level of activity of reducing the compound, activity of reducing 2-methyl-1-pyrroline taken as 100” value in data set [1] is given as 29%. For the same molecule, in data set [1] (substrate 25 mM), the “Relative Activity” value is 29.
As for `C(=NCc1ccccc1)c1ccccc1` [N-Benzylidenebenzylamine], in data set [1] (substrate 10 mM), the “Relative Activity” value is on record as 30.
For the molecule `NC(=O)C1=CN([C@@H]2O[C@H](COP(=O)(O)OP(=O)(O)OC[C@H]3O[C@@H](n4cnc5c(N)ncnc54)[C@H](O)[C@@H]3O)[C@@H](O)[C@H]2O)C=CC1` [NADH], the “activity with the coenzyme, activity with NADPH taken as 100%” value in data set [2] is recorded as 7%.
As for `NC(=O)C1=CN([C@@H]2O[C@H](COP(=O)(O)OP(=O)(O)OC[C@H]3O[C@@H](n4cnc5c(N)ncnc54)[C@H](OP(=O)(O)O)[C@@H]3O)[C@@H](O)[C@H]2O)C=CC1` [NADPH, reduced nicotinamide adenine dinucleotide phosphate], the “activity with the coenzyme, activity with NADPH taken as 100%” value in data set [2] turned out to be 100%.

B1: imine reductase purified from GF3587: NADPH-dependent imine reductase purified from Streptomyces sp. GF3587, amino acid sequence SEQ ID NO: 6 (protein)
chain: MGDNRTPVTVIGLGLMGQALAAAFLEAGHTTTVWNRSAGKAEQLVSQGAVQAATPADAVAASELVVVCLSTYDNMHDVIGSLGESLRGKVIVNLTSGSSDQGRETAAWAEKQGVEYLDGAIMITPPGIGTETAVLFYAGTQSVFEKYEPALKLLGGGTTYLGTDHGMPALYDVSLLGLMWGTLNSFLHGVAVVETAGVGAQQFLPWAHMWLEAIKMFTADYAAQIDAGDGKFPANDATLETHLAALKHLVHESEALGIDAELPKYSEALMERVISQGHAKNSYAAVLKAFRKPSE
modifications: Streptomyces sp. GF3587
For B1, in data set [3], the optimal temperature came to 50 °C. Further, in data set [4], the “optimal pH” value is recorded as 6.5.

B2: Q1EQE0: putative protein of Streptomyces kanamyceticus, SEQ ID NO: 17, imine reductase homologue (protein, listed as Streptomyces kanamyceticus)
chain: MPDNPSTKGRMMRNQQAEHTPVTVIGLGLMGQALAGAFLGAGHPTTVWNRTAAKAEPLVARGAKSAGSVAEAVAASPLVVVCVSDYDAVHALLDPLDGTALQGRTLVNLTSGTSAQARERAAWADGRGADYLDGAILAGPAAIGTADAVVLLSGPRSAFDPHASALGGLGAGTTYLGADHGLASLYDAAGLVMMWSILNGFLQGAALLGTAGVDATTFAPFITQGIGTVADWLPGYARQIDDGAYPADDAAIDTHLATMEHLIHESEFLGVNAELPRFIKALADRAVADGHGGSGYPALIEQFRTHSGK
For the molecule B2, the “imine-reducing activity in words” value in data set [5] is “exhibited the imine-reducing activity; also recorded: had imine-reducing activity”.
